Measurements reported in publication PMC4105339 (Antiviral research, 2014).
Marks after values point to notes of the source that are not given here.

Tests used:
[1] = tested on: A/Mississippi/03/01 H1N1 H274Y mutant neuraminidase
H3N2 E119V neuraminidase = conditions: cited from earlier work
[2] = target: B/Perth/211/01 D197E mutant neuraminidase; conditions: cited from earlier work
[3] = tested on: B/Perth/211/01 D197E mutant neuraminidase
[4] = tested on: A/Fukui/45/04 H3N2 E119V mutant neuraminidase

Structure (SMILES)	Time (T½) for reaction rates to reach half the maximum rate of the uninhibited control [1] [min]	changes in IC50 from 10 to 60 min in the preincubation reaction (H3N2 E119V neuraminidase) [fold]	IC50 [2] [nM]	Time (T½) for reaction rates to reach half the maximum rate of the uninhibited control [3]	Time (T½) for reaction rates to reach half the maximum rate of the uninhibited control [4] [min]
CC(=O)N[C@H]1[C@H]([C@H](O)[C@H](O)CO)OC(C(=O)O)=C[C@@H]1N=C(N)N [Zanamivir]	43.2	1.9	258	17.0^* min	–
CCC(CC)[C@H](NC(C)=O)[C@@H]1[C@H](O)[C@@H](C(=O)O)C[C@H]1N=C(N)N [Peramivir, peramivir]	–	–	41.5	18.8 min	>240
